Here are results for one sequence from patent US20160251402A1, “MICROPEPTIDES AND USE OF SAME FOR MODULATING GENE EXPRESSION” (UNIVERSITE PAUL SABATIER TOULOUSE III, priority 2013, published 2016).

This test has as its system HsmiR155. The test is described as follows: Relative expression of Pre-miR155 in transfected HeLa cells. Type of test: cell-based, Homo sapiens. The note with it: HeLa cells transfected to overexpress HsmiPEP155. The text has this:
The DNA fragments of interest (HsmiPEP155 and the mutated miPEP) were synthesized or amplified by PCR using specific primers, and then cloned using the enzymes XhoI and NotI into a pUAS plasmid permitting their overexpression by means of the GAL4 transcription factor, the expression of which is controlled by a constitutive strong promoter.
The different constructs were produced either by PCR amplification on genomic DNA of HeLa cells, or by RT-PCR on total RNAs of L428 human cells. The amplified PCR fragments are digested with the HindIII/EcoRI restriction enzymes and then cloned into the vector pcDNA3.1. The DH5α strain of Escherichia coli is electroporated and then cultured on a solid medium (2YT+agar+ampicillin). The plasmid DNA from different clones is then prepared and sequenced for verification. The constructs are then prepared using the QIAfilter Plasmid Midi kit (QIAGEN) and stored at −20° C.
The HeLa cells (established tumour line, ATCC CCL-2.2) are cultured in a 6-well plate in complete medium [(DMEM (1x)+Glutamax+4.5 g/L glucose without pyruvate+1x penicillin/streptomycin+1 mM Na-pyruvate+10% calf serum] and placed in an incubator at 37° C. and 5% CO2.
The cells are transfected when they are at 50% confluence. […]
10-15 μg of total RNAs is then analysed by Northern blot on 15% acrylamide gel [solution of acrylamide/40% bis-acrylamide, ratio 19:1], 7M urea in TBE 1x. […]

Consider “MEMALMVAQTRKGKSVV (listed as Homo sapiens) [HsmiPEP155]”, for which the “relative expression of Pre-miR155” value was “increases the expression of HsmiR155”.
